# Assays:
# [1] = system: SKBr3 (estrogen receptor negative, HER2 over-expressing breast cancer cells); assay: Anti-proliferation assay (MTS/PMS, 72 h), SKBr3; assay type: cell-based; settings: Homo sapiens
# Procedure: (§1) Cells were maintained in a 1:1 mixture of Advanced DMEM/F12 (Gibco) supplemented with non-essential amino acids, L-glutamine (2 mM), streptomycin (500 μg/mL), penicillin (100 units/mL), and 10% FBS. Cells were grown to confluence in a humidified atmosphere (37° C., 5% CO2), seeded (2000/well, 100 μL) in 96-well plates, and allowed to attach overnight. Compound at varying concentrations in DMSO (1% DMSO final concentration) was added, and cells were returned to the incubator for 72 h. At 72 h, the number of viable cells was determined using an MTS/PMS cell proliferation kit (Promega) per the manufacturer's instructions. Cells incubated in 1% DMSO were used at 100% proliferation, and values were adjusted accordingly. IC50 values were calculated from separate experiments performed in triplicate using GraphPad Prism.
# (§2) Anti-proliferative studies with the compounds described herein were performed against the SKBr3 (estrogen receptor negative, HER2 over-expressing breast cancer cells) and MCF-7 (estrogen receptor positive breast cancer cells) breast cancer cell lines. […] In some embodiments, in contrast to the novobiocin derivatives, which usually manifest better anti-proliferative activities against the SKBr3 cell line, the biphenyl derivatives described herein were more efficacious against the MCF-7 cell line. In general, all substitutions on the phenyl ring were determined to be beneficial, consistent with the existence of a hydrophobic pocket in this region of the Hsp90 C-terminal binding site.
# [2] = system: MCF-7 (estrogen receptor positive breast cancer cells); assay: Anti-proliferation assay (MTS/PMS, 72 h), MCF-7; assay type: cell-based; settings: Homo sapiens
# Procedure: as §1, §2
# [3] = SK-BR-3, Table 1, ortho, meta and para biphenyl cores
# [4] = MCF7, Table 1, ortho, meta and para biphenyl cores
# [5] = SK-BR-3, Table 2, para-meta biphenyl core with substituted benzylamide
# [6] = MCF7, Table 2, para-meta biphenyl core with substituted benzylamide
# [7] = SK-BR-3, Table 6, para-para biphenyl core with substituted benzylamide
# [8] = MCF7, Table 6, para-para biphenyl core with substituted benzylamide
# [9] = SK-BR-3, Table 3, substituted para-para biphenyl core
# [10] = MCF7, Table 3, substituted para-para biphenyl core
# [11] = SK-BR-3, Table 4, para-para heteroatom substituted biphenyl core
# [12] = MCF7, Table 4, para-para heteroatom substituted biphenyl core
# [13] = SK-BR-3, Table 8, para-para biphenyl core with substituted biphenylamide group
# [14] = MCF7, Table 8, para-para biphenyl core with substituted biphenylamide group
# [15] = SK-BR-3, Table 10, longer alkyl chain substituted biphenyl core
# [16] = MCF7, Table 10, longer alkyl chain substituted biphenyl core
smiles,measurement,setting,value
"CN1CCC(Oc2ccc(-c3ccc(NC(=O)C45CC6CC(CC(C6)C4)C5)cc3)cc2)CC1 [Compound 61c, N-(4′-((1-methylpiperidin-4-yl)oxy)-[1,1′-biphenyl]-4-yl)adamantane-1-carboxamide]",IC50,[1]; [3],2.07 ± 0.35 µM
same,IC50,[2]; [4],2.77 ± 0.23 µM
"COc1cccc(C(=O)Nc2cccc(-c3ccc(OC4CCN(C)CC4)cc3)c2)c1 [Compound 6g, 3-methoxy-N-(4′-((1-methylpiperidin-4-yl)oxy)-[1,1′-biphenyl]-3-yl)benzamide]",IC50,[1]; [5],8.36 ± 1.35 µM
same,IC50,[2]; [6],4.5 ± 0.46 µM
"CN1CCC(Oc2ccc(-c3cccc(NC(=O)c4cc(Cl)cc(Cl)c4)c3)cc2)CC1 [Compound 6o, 3,5-Dichloro-N-(4′-((1-methylpiperidin-4-yl)oxy)-[1,1′-biphenyl]-3-yl)benzamide]",IC50,[1]; [5],4.23 ± 0.09 µM
same,IC50,[2]; [6],3.72 ± 0.15 µM
"CN1CCC(Oc2ccc(-c3cccc(NC(=O)c4ccc(Cl)cc4)c3)cc2)CC1 [Compound 6h, 4-Chloro-N-(4′-((1-methylpiperidin-4-yl)oxy)-[1,1′-biphenyl]-3-yl)benzamide]",IC50,[1]; [3],3.63 ± 1.03 µM
same,IC50,[1]; [5],3.63 ± 1.03 µM
same,IC50,[2]; [4],2.23 ± 0.05 µM
same,IC50,[2]; [6],2.23 ± 0.05 µM
"CN1CCC(Oc2ccc(-c3ccc(NC(=O)c4cc5ccccc5s4)cc3)cc2)CC1 [Compound 47b, N-(4′-((1-methylpiperidin-4-yl)oxy)-[1,1′-biphenyl]-4-yl)benzo[b]thiophene-2-carboxamide]",IC50,[1]; [7],1.32 ± 0.23 µM
same,IC50,[2]; [8],2.01 ± 0.58 µM
"COc1cccc(-c2cc(C(=O)Nc3ccc(-c4ccc(OC5CCN(C)CC5)cc4)c(N)c3)ccc2OC)c1 [Compound 38c, N-(2-amino-4′-((1-methylpiperidin-4-yl)oxy)-[1,1′-biphenyl]-4-yl)-3′,6-dimethoxy-[1,1′-biphenyl]-3-carboxamide]",IC50,[1]; [9],3.9 ± 0.18 µM
same,IC50,[2]; [10],2.07 ± 0.23 µM
"COc1cccc(-c2cc(C(=O)Nc3ccc(-c4ccc(OC5CCN(C)CC5)cn4)cc3)ccc2OC)c1 [Compound 19b, 3′,6-dimethoxy-N-(4-(5-((1-methylpiperidin-4-yl)oxy)pyridin-2-yl)phenyl)-[1,1′-biphenyl]-3-carboxamide]",IC50,[1]; [11],1.91 ± 0.21 µM
same,IC50,[2]; [12],1.3 ± 0.15 µM
"CN1CCC(Oc2ccc(-c3cccc(NC(=O)c4ccccc4)c3)cc2)CC1 [Compound 6b, N-(4′-((1-methylpiperidin-4-yl)oxy)-[1,1′-biphenyl]-3-yl)benzamide]",IC50,[1]; [5],18.9 ± 0.95 µM
same,IC50,[2]; [6],12 ± 0.57 µM
"CN1CCC(Oc2ccc(-c3ccc(NC(=O)c4cc5ccccc5[nH]4)cc3)cc2)CC1 [Compound 47a, N-(4′-((1-methylpiperidin-4-yl)oxy)-[1,1′-biphenyl]-4-yl)-1H-indole-2-carboxamide]",IC50,[1]; [7],0.64 ± 0.08 µM
same,IC50,[2]; [8],0.58 ± 0.02 µM
COc1cccc(-c2cc(NC(=O)c3ccc(-c4ccc(OC5CCN(C)CC5)cc4)cc3)ccc2OC)c1 [Compound 60],IC50,"[1]; SK-BR-3, Table 5, modified linkers in para-para biphenyl core",1.64 ± 0.79 µM
same,IC50,"[2]; MCF7, Table 5, modified linkers in para-para biphenyl core",1.22 ± 0.13 µM
"COc1cccc(-c2cc(C(=O)Nc3ccc(-c4ccc(OC5CCN(C)CC5)c(N)c4)cc3)ccc2OC)c1 [Compound 38a, N-(3′-amino-4′-((1-methylpiperidin-4-yl)oxy)-[1,1′-biphenyl]-4-yl)-3′,6-dimethoxy-[1,1′-biphenyl]-3-carboxamide]",IC50,[1]; [9],2.23 ± 0.49 µM
same,IC50,[2]; [10],5.95 ± 1.22 µM
"CN1CCC(Oc2cccc(-c3cccc(NC(=O)c4ccc(C(C)(C)C)cc4)c3)c2)CC1 [Compound 61i, 4-(tert-butyl)-N-(3′-((1-methylpiperidin-4-yl)oxy)-[1,1′-biphenyl]-3-yl)benzamide]",IC50,[1]; [3],3.36 ± 0.2 µM
same,IC50,[2]; [4],1.93 ± 0.33 µM
"CN1CCC(Oc2ccc(-c3cccc(NC(=O)c4ccc(Cl)cc4Cl)c3)cc2)CC1 [Compound 6n, 2,4-Dichloro-N-(4′-((1-methylpiperidin-4-yl)oxy)-[1,1′-biphenyl]-3-yl)benzamide]",IC50,[1]; [5],5.91 ± 0.15 µM
same,IC50,[2]; [6],3.93 ± 0.47 µM
"COc1ccc(C(=O)Nc2ccc(-c3ccc(OC4CCN(C)CC4)cc3)cc2)cc1-c1ccccc1 [Compound 49a, 6-methoxy-N-(4′-((1-methylpiperidin-4-yl)oxy)-[1,1′-biphenyl]-4-yl)-[1,1′-biphenyl]-3-carboxamide]",IC50,[1]; [13],0.51 ± 0.11 µM
same,IC50,[2]; [14],0.84 ± 0.01 µM
"COc1cccc(-c2cc(C(=O)Nc3cccc(-c4cccc(OC5CCN(C)CC5)c4)c3)ccc2OC)c1 [Compound 61d, 3′,6-dimethoxy-N-(3′-((1-methylpiperidin-4-yl)oxy)-[1,1′-biphenyl]-3-yl)-[1,1′-biphenyl]-3-carboxamide]",IC50,[1]; [3],1.62 ± 0.07 µM
same,IC50,[2]; [4],2 ± 0.07 µM
"COc1cccc(-c2cc(C(=O)Nc3ccc(-c4ccc(OC5CCN(C)CC5)cc4)c(Cl)c3)ccc2OC)c1 [Compound 29k, N-(2-chloro-4′-((1-methylpiperidin-4-yl)oxy)-[1,1′-biphenyl]-4-yl)-3′,6-dimethoxy-[1,1′-biphenyl]-3-carboxamide]",IC50,[1]; [9],2.21 ± 0.18 µM
same,IC50,[2]; [10],3.44 ± 0.21 µM
CN1CCC(Oc2ccc(Nc3ccc(NC(=O)c4ccc(C(C)(C)C)cc4)cc3)cc2)CC1,IC50,"[1]; SK-BR-3, Table 11, heteroatom linked biphenyl core",2.17 ± 0.03 µM
same,IC50,"[2]; MCF7, Table 11, heteroatom linked biphenyl core",3.37 ± 1.63 µM
"Cc1cccc(C(=O)Nc2cccc(-c3ccc(OC4CCN(C)CC4)cc3)c2)c1 [Compound 6d, 3-methyl-N-(4′-((1-methylpiperidin-4-yl)oxy)-[1,1′-biphenyl]-3-yl)benzamide]",IC50,[1]; [5],11.4 ± 1.37 µM
same,IC50,[2]; [6],7.73 ± 1.9 µM
"COc1ccc(C(=O)Nc2ccc(-c3ccc(OC4CCN(C)CC4)cc3)cc2)cc1 [Compound 41f, 4-methoxy-N-(4′-((1-methylpiperidin-4-yl)oxy)-[1,1′-biphenyl]-4-yl)benzamide]",IC50,[1]; [3],0.49 ± 0.01 µM
same,IC50,[1]; [7],0.49 ± 0.01 µM
same,IC50,[2]; [4],0.65 ± 0.04 µM
same,IC50,[2]; [8],0.65 ± 0.04 µM
"COc1ccc(C(=O)Nc2ccc(-c3ccc(OC4CCN(C)CC4)cc3)cc2)cc1-c1ccc(OC(C)=O)cc1 [Compound 49e, 2′-methoxy-5′-((4′-((1-methylpiperidin-4-yl)oxy)-[1,1′-biphenyl]-4-yl)carbamoyl)-[1,1′-biphenyl]-4-yl acetate]",IC50,[1]; [13],0.14 ± 0.01 µM
same,IC50,[2]; [14],0.64 ± 0.08 µM
"COc1ccc(C(=O)Nc2ccc(-c3ccc(OC4CCN(C)CC4)cc3)cc2)cc1-c1cccc([N+](=O)[O-])c1 [Compound 49h, 6-methoxy-N-(4′-((1-methylpiperidin-4-yl)oxy)-[1,1′-biphenyl]-4-yl)-3′-nitro-[1,1′-biphenyl]-3-carboxamide]",IC50,[1]; [13],0.4 ± 0.07 µM
same,IC50,[2]; [14],1.09 ± 0.28 µM
COc1cccc(-c2cc(C(=O)Nc3ccc(-c4ccc(OC5CCN(C)CC5)c(CCC(C)C)c4)cc3)ccc2OC)c1,IC50,[1]; [15],1.18 ± 0.04 µM
same,IC50,[2]; [16],1.43 ± 0.22 µM
CCCOc1ccc(C(=O)Nc2ccc(-c3ccc(OC4CCN(C)CC4)cc3)cc2)cc1-c1cccc(OC)c1,IC50,[1]; [15],1.03 ± 0.04 µM
same,IC50,[2]; [16],1.66 ± 0.12 µM
"COc1cccc(-c2cc(C(=O)Nc3ccc(-c4ccc(OC5CCN(C)CC5)cc4)cn3)ccc2OC)c1 [Compound 19d, 3′,6-dimethoxy-N-(5-(4-((1-methylpiperidin-4-yl)oxy)phenyl)pyridin-2-yl)-[1,1′-biphenyl]-3-carboxamide]",IC50,[1]; [11],1.07 ± 0.01 µM
same,IC50,[2]; [12],1.02 ± 0.01 µM
"COc1ccc(C(=O)Nc2cccc(-c3ccc(OC4CCN(C)CC4)cc3)c2)cc1 [Compound 6f, 4-methoxy-N-(4′-((1-methylpiperidin-4-yl)oxy)-[1,1′-biphenyl]-3-yl)benzamide]",IC50,[1]; [3],10.1 ± 0.93 µM
same,IC50,[1]; [5],10.1 ± 0.93 µM
same,IC50,[2]; [4],5.52 ± 0.01 µM
same,IC50,[2]; [6],5.52 ± 0.01 µM
"CN1CCC(Oc2ccc(-c3ccc(NC(=O)c4ccccc4)cc3)cc2)CC1 [Compound 41a, N-(4′-((1-methylpiperidin-4-yl)oxy)-[1,1′-biphenyl]-4-yl)benzamide]",IC50,[1]; [7],4.13 ± 0.22 µM
same,IC50,[2]; [8],3.95 ± 0.13 µM
COc1cccc(-c2cc(C(=O)Nc3ccc(-c4ccc(OC5CCN(C)CC5)cc4)cc3)ccc2O)c1 [Compound 49j],IC50,[1]; [13],2.78 ± 0.35 µM
same,IC50,[2]; [14],2.71 ± 0.45 µM
"CN1CCC(Oc2cccc(-c3cccc(NC(=O)c4ccc(Cl)cc4)c3)c2)CC1 [Compound 61g, 4-chloro-N-(3′-((1-methylpiperidin-4-yl)oxy)-[1,1′-biphenyl]-3-yl)benzamide]",IC50,[1]; [3],4.15 ± 0.96 µM
same,IC50,[2]; [4],4.89 ± 0.08 µM
"COc1ccc(C(=O)Nc2ccc(-c3ccc(OC4CCN(C)CC4)cc3)cc2)cc1-c1cccc(Cl)c1 [Compound 49f, 3′-chloro-6-methoxy-N-(4′-((1-methylpiperidin-4-yl)oxy)-[1,1′-biphenyl]-4-yl)-[1,1′-biphenyl]-3-carboxamide]",IC50,[1]; [13],0.33 ± 0.03 µM
same,IC50,[2]; [14],0.32 ± 0.09 µM
"COc1cccc(-c2cc(C(=O)Nc3ccc(-c4ccc(OCCC5CCCN5C)cc4)cc3)ccc2OC)c1 (centres unmarked) [Compound 56d, 3′,6-dimethoxy-N-(4′-(2-(1-methylpyrrolidin-2-yl)ethoxy)-[1,1′-biphenyl]-4-yl)-[1,1′-biphenyl]-3-carboxamide]",IC50,"[1]; SK-BR-3, Table 7, para-para biphenyl core with modified ether groups",1.75 ± 0.24 µM

# Reference: patent US10689344B2, “Biphenylamide derivative Hsp90 inhibitors” (University of Kansas, priority 2013, dated 2020)
